The target in data set [1] is AKR1B10 (Homo sapiens, UniProt O60218). The data set can be described thus: Bioproduct production in A549 WT and AKR1B10 KO cells, headspace GC-MS. Conditions: for substrate of AKR1B10 (converted to 1-nonanol / trans-2-hexenol by this enzyme): WT versus AKR1B10 KO A549 cells. From the text:
We have tested conversion of these substrates to the respective bioproduct 1-nonanol, trans-2-hexenol, hexenol, benzyl alcohol, and nerol, in a cancer cell line overexpressing AKR1B10.
A549 lung cancer cells were targeted with a CRISP/Cas system to ablate the protein expression of AKR1B10. Specific sgRNA for the AKR1B10 gene were co-transfected in cells with SpCas9 using ribonucleoproteins (RNPs). Clonal cells were generated by using limiting dilution. […] Resulting protein extract for WT and AKR1B10 KO cells were analysed using the Jess system and samples were probed with an AKR1B10 specific antibody, and with an antibody against α-Tubulin as independent reporter.
5×10^4 cells/mL of WT or 3 AKR1B10 KO clone cells were seeded in 24-well plates using cell culture media and let adhere and proliferate for 48 hours to confluence. Then, they were treated with 30 μM nonanal or 10 µM trans-2-hexenal. […] Headspace analysis was performed by using Centri, coupled with a GC-MS Orbi-trap system. Peak identification of nonanal, 1-nonanol, trans-2-hexenal, and trans-2-hexenol, was performed by comparing the peak against reference standards.

The nature of data set [2]: Blood levels of bioproducts in NASH rat model (CDHFD vs normal diet). As to conditions: for time after administration at which blood concentration increases / blood levels, CDHFD compared to ND rats: after oral 2-butanol 440 mg/Kg; for blood levels, CDHFD compared to ND rats: at 8 and 12 hours (480, 720 minutes).
Experimental: Blood samples were analysed using gas chromatography mass spectrometry (GC/-MS) or HPLC to measure metabolitic bioproducts benzoic acid, 3-hydroxy-2-butanone, 2-3-butanediol, and 2,3-pentanediol.
A total of 18 Wistar Han rats were acclimatized for 6 days. After that time, 9 rats remained on a normal diet, while 9 rats were switched to a choline deficient high fat diet (CDHFD) (L-Amino Acid Diet With 45 kcal % Fat With 0.1% Methionine, No Added Choline and 1% Cholesterol) (Research Diet, catalog #A16092003, https://researchdiets.com/en/formulas/a16092003). Rats had ad libitum access to food and water at all times unless differently specified. Body weight was measured every week.
Following 10 weeks of diet treatment, rats were randomised into groups each group composed of 3 healthy and 3 NASH rats for dosing with the different compounds.
Each group received an emulsion containing the compounds reported in table 1 at the indicated amount.
Each compound preparation was administered as an emulsion containing 15% Tween80 diluted in water to deliver the target amount in 5 mL/kg body weight. The emulsion was administered by oral gavage after the rats were fasted for 16 hours.
Blood samples were collected pre (0 min) and post compound administration at the following timepoints: 5 min, 15 min, 30 min, 1 h, 1.5 h, 2 h, 4 h, 8 h, 12 h, and 24 h.
At each time point, ˜200 μL blood samples were collected into EDTA-K2 tubes and placed on wet ice until centrifugation. Plasma was generated, from the blood samples, by centrifugation at approximately 4° C., 3,200 g for 5 min.
A total of 100 μL of plasma was collected respectively and transferred into Eppendorf tubes. Of these, 95 μL of plasma were spiked with 400 μL of internal standard in acetonitrile, vortexed for 30s and centrifuged for 15 min at 3220 g. A total of 100 μL of supernatant was used for compounds quantification, unless differently specified.
Response for each compound was normalized by the response of the internal standard, and absolute quantification was performed against a calibration curve.
Data set [3] is described as follows: Nonanal and 2-butanol washout in breath of volunteers. Conditions: three volunteers; swallowed emulsion with 500 mg of Nonanal and 100 mg of 2-butanol; GC-MS. The procedure: An analysis of nonanal and 2-butanol washout of breath samples collected from three volunteers investigated before and after the intake of 500 mg of Nonanal and 100 mg of 2-butanol was performed. Three breath collections have been performed per each volunteer.
Three Volunteers participated in this trial for 3 times. They swallowed an emulsion containing 500 mg of Nonanal and 100 mg of 2-butanol and their breath was collected at 8 different time points before and after the emulsion intake using the ReCIVA, a face mask containing tubes for breath collection, and storage of exhaled VOCs.
Appearance on breath and conversion of the probes to their bioproducts was measured using gas-chromatography mass-spectrometry (GC-MS).

The subject of data set [4] is healthy human hepatocytes. The data set can be described thus: Metabolism of VOCs by healthy human hepatocytes (organ-on-a-chip). The procedure: Organ-on-a chip samples were used.
Organ-on-a chip is a three-dimensional hepatocytes culturing system developed by a company called CN-Bio Ltd. Aliquots of media spiked with VOCs and collected at different time points are analysed using CENTRI-GC-MS a system for VOCs headspace detection and quantification. The experiment contained samples from healthy hepatocytes in the culture medium exposed to 2-butanol, nonanal at one of the concentrations: 50, 10, 2 and 0 ng/μL, and the control which is the culture medium without hepatocytes containing 2-butanol, and nonanal of the same concentration.
System suitability test (SST) and […] standards check (0, 2, 10 and 50 ng/μL), were run in duplicate at the beginning, in the middle and at the end of the sequence to mitigate against the risk of an instrumental deviation.
Empty tubes were also run at the beginning, in the middle and at the end of the sequence to mitigate against the risk of a carryover 0.5 μL Internal standards (1000 ng/μL) were spiked into each sample prior to analysis.

In data set [5] the test system is healthy and NASH hepatocytes. As to conditions: for level of probe in presence of NASH and healthy hepatocytes compared with absence of hepatocytes: 50 ng/μL in culture medium, aliquots 0.5 to 24 hours. From the text: Organ-on-a-chip containing healthy human hepatocytes and human hepatocytes treated to generate a model of a healthy or NASH liver disease were used in the following experiments. The Organ-on-a-chip containing healthy human hepatocytes are similar to the Organ-on-a-chip described above, but the experiment also included a model of NASH hepatocytes. The latter are obtained by treating healthy hepatocytes with Kupfer cells and hepatocytes stellate cells.
Primary human hepatocytes (PHHs), Kupffers cells (KCs), and hepatic stellate cells (HSCs) were seeded onto CN-Bio's PhysioMimix LC12 MPS culture plates at 6×10^5 cells for PHHs and 6×10^4 cells for HKCs and HSCs (necessary to induce the NASH phenotype) per well in CN-Bio's seeding medium. Throughout the experiment the cells were maintained at a medium flow rate of 1 μl/s. At days 4, 6, 8, 11, and 12 post seeding, medium aliquots were taken to measure LDH and albumin to assess cell health. At day 13 (24 hours post VOCs treatment), final medium collection for analysis was performed. Scaffolds were fixed in 4% formaldehyde for Oil Red O staining to assess lipid accumulation.
Primary hepatocytes were treated with 2-butanol and nonanal diluted in the hepatocytes culture medium at a concentration of 50 ng/μL. Aliquots of the culture medium were collected at 0.5, 1, 2, 4, 6, and 24 hours. The remaining medium-compound mix that was not added to the cells was considered as 0 timepoint reference. Headspace analysis was performed by using Centri, an automated system used to collect VOCs in the headspace, coupled with a GC-MS Orbi-trap system, a high-resolution mass spectrometer for detection and quantification of VOCs. Peak identification of 2-butanol, 2-butanone, nonanal, and 1-nonanol was performed by comparing the peak against a reference standard. A p-value<0.05 was considered as statistically significant.

Setting [6] is: after oral 2-pentanone 160 mg/Kg.
The mark [7] stands for this setting: hepatocytes treated with 2-butanol and nonanal at 50 ng/μL.

Structures are written as SMILES.

Chain of AKR1B10 (O60218 whole entry): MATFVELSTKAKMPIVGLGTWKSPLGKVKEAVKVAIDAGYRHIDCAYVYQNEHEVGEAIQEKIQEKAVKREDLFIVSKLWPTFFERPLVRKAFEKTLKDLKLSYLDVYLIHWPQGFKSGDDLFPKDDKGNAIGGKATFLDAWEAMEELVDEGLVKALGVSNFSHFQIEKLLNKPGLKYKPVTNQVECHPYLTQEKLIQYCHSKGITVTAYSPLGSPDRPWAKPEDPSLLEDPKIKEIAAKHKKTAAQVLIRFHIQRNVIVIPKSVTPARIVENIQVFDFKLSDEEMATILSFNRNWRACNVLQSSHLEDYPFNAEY

As for `CCCCCCCCCO` [1-nonanol], the “production of 1-nonanol, levels in WT compared to AKR1B10 KO cells” value in data set [1] (human, 30 μM) is recorded as 3 times higher.

On to `CC(O)C(C)O` (centres unmarked) [2,3-butanediol], for which, in data set [2], the “time after administration at which blood concentration increases” value came to 240 min and the “blood levels, CDHFD compared to ND rats” value was “higher levels in CDHFD compared to ND rats”.

On to `CCC(O)C(C)O` (centres unmarked) [2,3-pentanediol], for which, in data set [2] (setting [6]), the “blood levels, CDHFD rats compared to ND rats” value was “higher in CDHFD rats compared to ND rats after 4 hours” and the “time after administration after which blood levels increased” value was determined as 1 h.

In the case of `CCC(C)O` (centres unmarked) [2-butanol], the “detection in breath samples after emulsion intake” value in data set [3] is listed as “detected”. Moreover, the “level of probe over 24 hours in media alone and media with hepatocytes” value in data set [4] (50, 10, 2 and 0 ng/μL, healthy hepatocytes, headspace GC-MS) is “a decrease both in media alone and media with hepatocytes”. Besides, in data set [5], the “level of probe in presence of NASH and healthy hepatocytes compared with absence of hepatocytes” value was “more marked reduction at 24 h”.

`CCC(C)=O` [2-butanone]: the “level of bioproduct over time in media with hepatocytes” value in data set [4] (hepatocytes exposed to nonanal and 2-butanol, 50, 10, 2 and 0 ng/μL) was “a spike and subsequent decrease”. Also, in data set [5] (setting [7]), the “area of the bioproduct peak, NASH versus healthy hepatocytes” value is listed as “the area under the peak for healthy is larger than for NASH” and the “production of bioproduct, NASH versus healthy hepatocytes” value is given as “Healthy hepatocytes showed higher production of 2-butanone at 6 hours”.

Regarding `CC(=O)C(C)O` (centres unmarked) [3-hydroxy-2-butanone], in data set [2], the “time after administration at which blood concentration increases” value worked out at 240 min and the “blood levels, CDHFD compared to ND rats” value is listed as “higher levels in CDHFD compared to ND rats”.

For `O=Cc1ccccc1` [benzylaldehyde], the “conversion of the substrate to the respective bioproduct” value (from here on “conversion of the substrate”) in data set [1] (cancer cell line overexpressing AKR1B10, substrates added to the culture media) is recorded as “conversion to the bioproducts in a timeframe of 6 hours”.

As for `CC(C)=CCCC(C)=CC=O` [citral], in data set [1] (human, 6 h), the “conversion of the substrate” value is on record as “conversion to the bioproducts in a timeframe of 6 hours”.

Turning to `CCCCCC=O` [hexanal], in data set [1] (human, 6 h), the “conversion of the substrate” value is “conversion to the bioproducts in a timeframe of 6 hours”.

In the case of `CCCCCCCCC=O` [nonanal], in data set [1], the “bioproduct generation after ablation of AKR1B10 or treatment of the cells with AKRs inhibitors” value is “reduced or absent bioproduct generation” and the “substrate of AKR1B10 (converted to 1-nonanol / trans-2-hexenol by this enzyme)” value was “substrates for AKR1B10”. Also, the “level of nonanal in medium added to WT or AKR1B10 KO cell lines, versus medium without cells” value in data set [1] (human, 3 h, 30 μM) is listed as “increased reduction over 3 hours”. Moreover, the “conversion of the substrate” value in data set [1] (human, 6 h) was “conversion to the bioproducts in a timeframe of 6 hours”. In addition, in data set [5], the “level of probe in presence of NASH and healthy hepatocytes compared with absence of hepatocytes” value is reported as “more marked reduction”.

Turning to `CCC/C=C/C=O` [trans-2-hexenal], in data set [1], the “bioproduct generation after ablation of AKR1B10 or treatment of the cells with AKRs inhibitors” value is recorded as “reduced or absent bioproduct generation” and the “substrate of AKR1B10 (converted to 1-nonanol / trans-2-hexenol by this enzyme)” value was “substrates for AKR1B10”. Besides, the “production of bioproduct of trans-2-hexenal, levels in WT compared to AKR1B10 KO cells” value in data set [1] (human, 10 μM) is listed as 10 times higher. In addition, in data set [1] (human, 3 h, 10 μM), the “level of trans-2-hexenal in medium added to WT or AKR1B10 KO cell lines, versus medium without cells” value is on record as “increased reduction over 3 hours”. Moreover, the “conversion of the substrate” value in data set [1] (human, 6 h) was “conversion to the bioproducts in a timeframe of 6 hours”.

These data come from patent US20250306034A1, “Detection of Liver Disease” (Owlstone Medical Limited, priority 2022, published 2025).
